The numbers were not newly measured in patent US20260256742A1, “ANDROGEN RECEPTOR ANTAGONISTS FOR THE TREATMENT OF PATIENTS WITH BIOCHEMICAL RECURRENCE OF HORMONE SENSITIVE PROSTATE CANCER” (BAYER CONSUMER CARE AG, priority 2023, published 2026), which cites them from elsewhere.

Molecules are shown by their SMILES.

For series [1] the following is noted: in vivo; cited from earlier work.
For series [2] the following is noted: single oral administration; cited from earlier work.
Series [3] has as its system nmCRPC. The note with it: in combination with ADT, patients with nmCRPC; cited from earlier work.
Series [4] deals with T878A AR mutant (Homo sapiens, UniProt P10275, T878A). The note with it: cited from earlier work.
T878A AR mutant, sequence (P10275 whole entry T878A): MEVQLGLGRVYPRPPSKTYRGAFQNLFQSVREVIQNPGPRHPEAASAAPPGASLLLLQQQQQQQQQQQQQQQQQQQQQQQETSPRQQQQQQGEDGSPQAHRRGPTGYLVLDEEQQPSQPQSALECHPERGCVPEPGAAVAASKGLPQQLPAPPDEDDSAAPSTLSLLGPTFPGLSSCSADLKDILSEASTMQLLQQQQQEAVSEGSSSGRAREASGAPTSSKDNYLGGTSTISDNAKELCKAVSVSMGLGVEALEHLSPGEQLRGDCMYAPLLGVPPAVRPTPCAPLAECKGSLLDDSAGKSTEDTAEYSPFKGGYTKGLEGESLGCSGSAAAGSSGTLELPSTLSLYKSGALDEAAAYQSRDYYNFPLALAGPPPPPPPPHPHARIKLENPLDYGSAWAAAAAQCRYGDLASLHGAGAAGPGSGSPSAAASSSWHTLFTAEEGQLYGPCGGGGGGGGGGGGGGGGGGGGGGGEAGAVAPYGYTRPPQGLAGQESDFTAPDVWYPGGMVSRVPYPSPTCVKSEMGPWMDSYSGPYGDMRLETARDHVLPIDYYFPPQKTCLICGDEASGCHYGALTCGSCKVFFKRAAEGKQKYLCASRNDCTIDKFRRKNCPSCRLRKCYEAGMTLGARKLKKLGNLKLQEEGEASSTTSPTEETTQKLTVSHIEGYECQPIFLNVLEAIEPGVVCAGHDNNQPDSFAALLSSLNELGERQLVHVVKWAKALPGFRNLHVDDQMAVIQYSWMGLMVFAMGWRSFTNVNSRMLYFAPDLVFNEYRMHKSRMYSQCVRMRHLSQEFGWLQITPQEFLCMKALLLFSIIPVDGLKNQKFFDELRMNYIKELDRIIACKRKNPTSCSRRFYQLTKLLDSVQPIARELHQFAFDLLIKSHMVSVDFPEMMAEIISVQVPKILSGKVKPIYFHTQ

Turning to `CC(Cn1ccc(-c2ccc(C#N)c(Cl)c2)n1)NC(=O)c1cc(C(C)O)[nH]n1` (single isomer, unassigned) [(S,R) diastereoisomer], the “elimination compared with the other diastereoisomer” value in series [1] is listed as “faster elimination”.

As for `CC(O)c1cc(C(=O)N[C@@H](C)Cn2ccc(-c3ccc(C#N)c(Cl)c3)n2)[nH]n1` (some centres unmarked) [[^14C]-darolutamide], in series [2], the “exposure in prostate tissue” value was “higher”; the tissue distribution entry was “wide and homogenous distribution in all tissues except the brain”.

On to `CNC(=O)c1ccc(N2C(=S)N(c3cnc(C#N)c(C(F)(F)F)c3)C(=O)C23CCC3)cc1F` [apalutamide], for which, in series [3], the “metastatic free survival (MFS)” value is reported as “significantly increased” and the “overall survival (OS)” value is “significantly increased”.

With `CNC(=O)c1ccc(N2C(=S)N(c3ccc(C#N)c(C(F)(F)F)c3)C(=O)C2(C)C)cc1F` [enzalutamide], in series [3], the “metastatic free survival (MFS)” value is recorded as “significantly increased” and the “overall survival (OS)” value was “significantly increased”.

For `CC(C)(O)C(=O)Nc1ccc([N+](=O)[O-])c(C(F)(F)F)c1` [hydroxyflutamide], the “action in T878A AR mutant” value in series [4] is “AR agonists”.
